Measured values taken from paper PMC8443589, “Modelling human liver fibrosis in the context of non-alcoholic steatohepatitis using a microphysiological system” (Communications Biology, 2021).

Tested on: liver MPS NASH model (PHH, KC and HSC co-cultures, high fat)
Experiment: Secreted cytokine/biomarker profile (Luminex, ELISA) of liver MPS NASH model dosed with OCA or ELF
Format: cell-based, human
Procedure: Fig. 3 Obeticholic acid and Elafibranor both modulate inflammatory and fibrosis phenotype in liver MPS NASH model and phenotype can additionally be reversed with dietary changes. PHH, KC and HSC co-cultures were cultured in the MPS platform under high fat conditions and dosed with varying concentrations of Obeticholic acid (OCA) and Elafibranor (ELF) QD or vehicle control (control) for 10 days, following an initial 4-day pre-culture phase. a The secreted cytokine profile from liver microtissues was compared by Luminex to determine the effects of each compound on the inflammatory profile of the liver with samples analysed at day 8 and 14 of the culture. Data were normalised by Z-transformation to allow comparison of all analytes and presented as a heatmap. b The expression of fibrosis-associated genes was analysed in total RNA from control, OCA and ELF treated liver microtissues (highest concentration for each compound) using Human Fibrosis RT2 Profiler PCR Arrays. Gene expression changes are expressed as a fold change over control. c Liver microtissues were stained for collagen-type I, α-SMA, nuclei (DAPI - blue), phalloidin (green) and imaged by confocal microscopy. Representative images are shown and scale bars 200 µm. d Staining of microtissue was quantified by measuring total fluorescence intensity throughout individual microtissues, each data point represents an average of all the microtissues imaged within an MPS scaffold (min 8, max 20 microtissues). e PHH, KC and HSC co-cultures were cultured in the MPS platform under high fat or lean conditions for 30 days. Cultures either remained in the same type of media throughout or were switched at day 15 from fat media to lean media (Fat -> Lean). Cell culture medium samples were analysed for the presence of IL-6, f MCP-1, g TIMP-1, which were measured by ELISA. h Microtissues were stained with Oil-Red O to determine fat loading during culture period, total stain was quantified by absorbance at 510 nm. All datapoints shown, either as box-whisker plots highlighting mean and min-max or with error bars highlighting means ± SD. All data from a minimum of three independent cultures; statistical comparisons made to control samples unless other comparison shown.
Soluble biomarkers in cell culture medium from the MPS were analysed by enzyme-linked immunosorbent assay (ELISA); IL-6 was measured by Human IL-6 DuoSet ELISA (R&D Systems); MCP-1 was measured by Human CCL2/MCP-1 DuoSet ELISA (R&D Systems); pro-collagen 1 was measured by Human Pro-Collagen I α1 DuoSet (R&D Systems); TIMP-1 was measured by Human TIMP-1 Quantikine ELISA Kit (R&D Systems); Fibronectin was measured by Human Fibronectin DuoSet ELISA (R&D Systems); YKL-40 was measured by Human Chitinase 3-like 1 Quantikine ELISA Kit (R&D Systems); Albumin secretion was measured by Human Albumin AssayMax™ ELISA kit (Assay Pro, St. Charles, MO). For all assays, the manufacturer’s protocol was followed.
Cytokine profiles in cell culture medium samples were also analysed by Luminex array for determination of 38 analytes in total, consisting of cytokines, chemokines, and growth factors using the MILLIPLEX MAP Human Cytokine/Chemokine Magnetic Bead Panel - Premixed 38 Plex (Merck Millipore, USA).
Liver microtissues were cultured for 4 days in HEP-FAT medium, before dosing with obeticholic acid or elafibranor. Both compounds were dissolved in DMSO, diluted in cell culture medium (final DMSO concentration ≤1%) and added to microtissues during a full medium change every two days and in addition on the intervening days compounds were spiked into the media to increase drug concentration back to desired concentrations. Cultures were maintained in the presence of the compound, for a total of 10 days in the presence or absence of TGFβ.

Compound: CSc1ccc(C(=O)/C=C/c2cc(C)c(OC(C)(C)C(=O)O)c(C)c2)cc1 [Elafibranor]
- inflammatory cytokines, including CXCL1, IL1-Rα, IL-6 and MCP-1 (10 days of compound treatment): concentration-dependent decrease
- CXCL1 fold change in production compared to control (ELF 1.3 µM QD, D8): 0.8888
- CXCL10 fold change in production compared to control (ELF 1.3 µM QD, D8): 0.9847
- FN1 fold change in production compared to control (ELF 1.3 µM QD, D8): 0.9865
- IL-1RA fold change in production compared to control (ELF 1.3 µM QD, D8): 0.559
- IL-4 fold change in production compared to control (ELF 1.3 µM QD, D8): 1.264
- IL-6 fold change in production compared to control (ELF 1.3 µM QD, D8): 0.3707
- IL-8 fold change in production compared to control (ELF 1.3 µM QD, D8): 1.017
- MCP-1 fold change in production compared to control (ELF 1.3 µM QD, D8): 1.109
- MIP-1a fold change in production compared to control (ELF 1.3 µM QD, D8): 0.8137
- MIP-1b fold change in production compared to control (ELF 1.3 µM QD, D8): 0.885
- TIMP-1 fold change in production compared to control (ELF 1.3 µM QD, D8): 0.8634
- VEGF fold change in production compared to control (ELF 1.3 µM QD, D8): 0.3678
- CXCL1 fold change in production compared to control (ELF 1.3 µM QD, D14): 0.5791
- CXCL10 fold change in production compared to control (ELF 1.3 µM QD, D14): 0.6755
- FN1 fold change in production compared to control (ELF 1.3 µM QD, D14): 1.109
- IL-1RA fold change in production compared to control (ELF 1.3 µM QD, D14): 0.3482
- IL-4 fold change in production compared to control (ELF 1.3 µM QD, D14): 0.8813
- IL-6 fold change in production compared to control (ELF 1.3 µM QD, D14): 0.3647
- IL-8 fold change in production compared to control (ELF 1.3 µM QD, D14): 0.625
- MCP-1 fold change in production compared to control (ELF 1.3 µM QD, D14): 0.9408
- MIP-1a fold change in production compared to control (ELF 1.3 µM QD, D14): 0.8725
- MIP-1b fold change in production compared to control (ELF 1.3 µM QD, D14): 1.297
- TIMP-1 fold change in production compared to control (ELF 1.3 µM QD, D14): 0.9244
- VEGF fold change in production compared to control (ELF 1.3 µM QD, D14): 0.5658
- CXCL1 fold change in production compared to control (ELF 13 µM QD, D8): 0.7659
- CXCL10 fold change in production compared to control (ELF 13 µM QD, D8): 0.8228
- FN1 fold change in production compared to control (ELF 13 µM QD, D8): 0.9502
- IL-1RA fold change in production compared to control (ELF 13 µM QD, D8): 0.4867
- IL-4 fold change in production compared to control (ELF 13 µM QD, D8): 1.05
- IL-6 fold change in production compared to control (ELF 13 µM QD, D8): 0.3808
- IL-8 fold change in production compared to control (ELF 13 µM QD, D8): 0.9446
- MCP-1 fold change in production compared to control (ELF 13 µM QD, D8): 0.8534
- MIP-1a fold change in production compared to control (ELF 13 µM QD, D8): 0.3878
- MIP-1b fold change in production compared to control (ELF 13 µM QD, D8): 0.4913
- TIMP-1 fold change in production compared to control (ELF 13 µM QD, D8): 0.6879
- VEGF fold change in production compared to control (ELF 13 µM QD, D8): 0.494
- CXCL1 fold change in production compared to control (ELF 13 µM QD, D14): 0.5325
- CXCL10 fold change in production compared to control (ELF 13 µM QD, D14): 0.6314
- FN1 fold change in production compared to control (ELF 13 µM QD, D14): 0.9442
- IL-1RA fold change in production compared to control (ELF 13 µM QD, D14): 0.3167
- IL-4 fold change in production compared to control (ELF 13 µM QD, D14): 1.0405
- IL-6 fold change in production compared to control (ELF 13 µM QD, D14): 0.4596
- IL-8 fold change in production compared to control (ELF 13 µM QD, D14): 0.6408
- MCP-1 fold change in production compared to control (ELF 13 µM QD, D14): 0.5
- MIP-1a fold change in production compared to control (ELF 13 µM QD, D14): 0.4932
- MIP-1b fold change in production compared to control (ELF 13 µM QD, D14): 0.6533
- TIMP-1 fold change in production compared to control (ELF 13 µM QD, D14): 0.6384
- VEGF fold change in production compared to control (ELF 13 µM QD, D14): 1.282
- CXCL1 fold change in production compared to control (ELF 65 µM QD, D8): 0.4476
- CXCL10 fold change in production compared to control (ELF 65 µM QD, D8): 0.3212
- FN1 fold change in production compared to control (ELF 65 µM QD, D8): 0.8989
- IL-1RA fold change in production compared to control (ELF 65 µM QD, D8): 0.1707
- IL-4 fold change in production compared to control (ELF 65 µM QD, D8): 0.5412
- IL-6 fold change in production compared to control (ELF 65 µM QD, D8): 0.2914
- IL-8 fold change in production compared to control (ELF 65 µM QD, D8): 0.5667
- MCP-1 fold change in production compared to control (ELF 65 µM QD, D8): 0.402
- MIP-1a fold change in production compared to control (ELF 65 µM QD, D8): 0.2899
- MIP-1b fold change in production compared to control (ELF 65 µM QD, D8): 0.5458
- TIMP-1 fold change in production compared to control (ELF 65 µM QD, D8): 0.784
- VEGF fold change in production compared to control (ELF 65 µM QD, D8): 0.6076
- CXCL1 fold change in production compared to control (ELF 65 µM QD, D14): 0.3166
- CXCL10 fold change in production compared to control (ELF 65 µM QD, D14): 0.3403
- FN1 fold change in production compared to control (ELF 65 µM QD, D14): 0.7375
- IL-1RA fold change in production compared to control (ELF 65 µM QD, D14): 0.07012
- IL-4 fold change in production compared to control (ELF 65 µM QD, D14): 0.3173
- IL-6 fold change in production compared to control (ELF 65 µM QD, D14): 0.09996
- IL-8 fold change in production compared to control (ELF 65 µM QD, D14): 0.4914
- MCP-1 fold change in production compared to control (ELF 65 µM QD, D14): 0.1355
- MIP-1a fold change in production compared to control (ELF 65 µM QD, D14): 0.3265
- MIP-1b fold change in production compared to control (ELF 65 µM QD, D14): 0.1355
- TIMP-1 fold change in production compared to control (ELF 65 µM QD, D14): 0.5288
- VEGF fold change in production compared to control (ELF 65 µM QD, D14): 1.5699
